Test results from paper PMC5897044 (Cell host & microbe, 2017).
Bridge positions count the residues as written; N and C are the ends. Peptide text beside a SMILES is read from it.

System: PMN infiltration in skin
Settings: mouse, in vivo

`C[C@@H](O)[C@H](NC(=O)[C@H](CO)NC(=O)[C@@H](N)Cc1ccc(O)cc1)C(=O)N[C@H]1CSC(=O)[C@H](Cc2ccccc2)NC(=O)[C@H](Cc2ccc(O)cc2)NC(=O)[C@H](Cc2ccc(O)cc2)NC(=O)[C@H](CO)NC1=O` [S. caprae AIP] (H-YSTCSYYF; thioester 4-C) was tested. Which “magnitude of PMN infiltration by sterile injection, AIP vs vehicle” value did it give?
Its value is “equivalent”.
